# Literature values, collected in patent US20120321577A1, “Skin-whitening composition containing tyrosinase inhibitor” (priority 2011, published 2012).
# Conditions: conventionally
structure (smiles),measurement,value
NC[C@H]1CC[C@H](C(=O)O)CC1 [tranexamic acid],concentration needed to give whitening effect,higher than 3%
